biological target: T1, human GPR17 receptor (Homo sapiens, UniProt Q13304); assay: Calcium mobilization functional assay (Fluo-8, FLIPR TETRA) in HEK-293 hGPR17 (Gα-q assay); assay type: cell-based; conditions: antagonism of MDL29,951 (~EC80) induced Ca2+ signal; cell line (HEK-293 hGPR17 or HEK-293 Suchi5 hGPR17) not given
T1 construct: host or cells: HEK-293
In short: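 Fluo-8-loaded HEK-293 hGPR17 cells (60 min dye loading, room temperature) were preincubated with compound for twenty minutes, then challenged with agonist MDL29,951 at ~EC80, 500 nM. Intracellular calcium release via Gα-q was recorded as FLIPR fluorescence for a further 2 minutes; compounds tested in duplicate.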

T1 sequence (Q13304 whole entry): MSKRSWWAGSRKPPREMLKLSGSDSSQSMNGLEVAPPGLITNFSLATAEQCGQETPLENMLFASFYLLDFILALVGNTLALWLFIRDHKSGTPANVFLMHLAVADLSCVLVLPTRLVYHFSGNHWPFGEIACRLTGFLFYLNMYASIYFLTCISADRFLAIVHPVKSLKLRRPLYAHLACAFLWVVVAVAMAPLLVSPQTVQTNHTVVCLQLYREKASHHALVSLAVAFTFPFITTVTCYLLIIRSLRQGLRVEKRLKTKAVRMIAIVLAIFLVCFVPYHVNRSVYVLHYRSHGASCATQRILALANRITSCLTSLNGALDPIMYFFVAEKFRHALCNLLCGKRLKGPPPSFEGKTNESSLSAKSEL

Row | Structure (SMILES) | IC50
1 | Cc1ccc(-c2cc(S(=O)(=O)Nc3cc(F)c(C(F)(F)F)cc3F)c[nH]2)c(F)c1 [Cpd 293, N-[2,5-difluoro-4-(trifluoromethyl)phenyl]-5-(2-fluoro-4-methyl-phenyl)-1H-pyrrole-3-sulfonamide] | 5000 to 50000 nM
2 | O=S(=O)(Nc1cccc(F)c1F)c1c[nH]c(-c2ccccc2F)c1 [Cpd 056, N-(2,3-difluorophenyl)-5-(2-fluorophenyl)-1H-pyrrole-3-sulfonamide] | 5000 to 50000 nM
3 | Cc1cc(F)cc(-c2cc(S(=O)(=O)Nc3ccc(C#N)cc3F)c[nH]2)c1 [Cpd 288, N-(4-cyano-2-fluoro-phenyl)-5-(3-fluoro-5-methyl-phenyl)-1H-pyrrole-3-sulfonamide] | 500 to 5000 nM
4 | N#Cc1cc(F)c(NS(=O)(=O)c2c[nH]c(-c3cccc4ccoc34)c2)cc1F [Cpd 615, 5-(1-benzofuran-7-yl)-N-(4-cyano-2,5-difluorophenyl)-1H-pyrrole-3-sulfonamide] | < 500 nM
5 | COc1cccc(-c2cc(S(=O)(=O)Nc3cc(F)c(C(F)(F)F)cc3F)c[nH]2)c1F [Cpd 325, N-[2,5-difluoro-4-(trifluoromethyl)phenyl]-5-(2-fluoro-3-methoxy-phenyl)-1H-pyrrole-3-sulfonamide] | 500 to 5000 nM
6 | N#Cc1ccc(NS(=O)(=O)c2c[nH]c(-c3cccn(C(F)F)c3=O)c2)c(F)c1 [Cpd 604, N-(4-cyano-2-fluorophenyl)-5-[1-(difluoromethyl)-2-oxopyridin-3-yl]-1H-pyrrole-3-sulfonamide] | 500 to 5000 nM
7 | COc1csc(-c2cc(S(=O)(=O)Nc3cc(F)c(OC(F)F)cc3F)c[nH]2)n1 [Cpd 633, N-[4-(difluoromethoxy)-2,5-difluorophenyl]-5-(4-methoxy-1,3-thiazol-2-yl)-1H-pyrrole-3-sulfonamide] | < 500 nM
8 | Cc1ccccc1-c1cc(S(=O)(=O)Nc2cc(F)c(C(F)(F)F)cc2F)c[nH]1 [Cpd 118, N-[2,5-difluoro-4-(trifluoromethyl)phenyl]-5-(o-tolyl)-1H-pyrrole-3-sulfonamide] | 500 to 5000 nM
9 | O=S(=O)(Nc1cc(F)c(F)cc1F)c1c[nH]c(-c2ccccc2)c1 [Cpd 137, 5-phenyl-N-(2,4,5-trifluorophenyl)-1H-pyrrole-3-sulfonamide] | 500 to 5000 nM
10 | N#Cc1cc(F)c(NS(=O)(=O)c2c[nH]cc2Cc2cccc(OC(F)F)c2)cc1F [Cpd 548, N-(4-cyano-2,5-difluorophenyl)-4-[[3-(difluoromethoxy)phenyl]methyl]-1H-pyrrole-3-sulfonamide] | < 500 nM
11 | O=S(=O)(Nc1cc(F)c(C(F)(F)F)cc1F)c1c[nH]c(-c2cncs2)c1 [Cpd 597, N-[2,5-difluoro-4-(trifluoromethyl)phenyl]-5-(1,3-thiazol-5-yl)-1H-pyrrole-3-sulfonamide] | < 500 nM
12 | Cc1noc(C)c1-c1cc(S(=O)(=O)Nc2cc(F)c(C(F)(F)F)cc2F)c[nH]1 [Cpd 582, N-[2,5-difluoro-4-(trifluoromethyl)phenyl]-5-(3,5-dimethyl-1,2-oxazol-4-yl)-1H-pyrrole-3-sulfonamide] | 500 to 5000 nM
13 | COc1cc(C#N)ccc1NS(=O)(=O)c1c[nH]c(-c2ccccc2)c1 [Cpd 030, N-(4-cyano-2-methoxy-phenyl)-5-phenyl-1H-pyrrole-3-sulfonamide] | 500 to 5000 nM
14 | O=S(=O)(Nc1cc(F)c(OC(F)F)cc1F)c1c[nH]cc1Cc1ccccc1 [Cpd 271, 4-benzyl-N-[4-(difluoromethoxy)-2,5-difluoro-phenyl]-1H-pyrrole-3-sulfonamide] | < 500 nM
15 | N#Cc1ccc(NS(=O)(=O)c2c[nH]cc2Cc2ccccc2F)c(F)c1 [Cpd 182, N-(4-cyano-2-fluoro-phenyl)-4-[(2-fluorophenyl)methyl]-1H-pyrrole-3-sulfonamide] | 500 to 5000 nM
16 | N#Cc1ccc(NS(=O)(=O)c2c[nH]cc2Cc2cccs2)c(F)c1 [Cpd 343, N-(4-cyano-2-fluoro-phenyl)-4-(2-thienylmethyl)-1H-pyrrole-3-sulfonamide] | < 500 nM
17 | O=S(=O)(Nc1cc(F)c(C(F)(F)F)cc1F)c1c[nH]c(-c2cccc3cccnc23)c1 [Cpd 465, N-[2,5-difluoro-4-(trifluoromethyl)phenyl]-5-quinolin-8-yl-1H-pyrrole-3-sulfonamide] | 500 to 5000 nM
18 | N#Cc1ccc(NS(=O)(=O)c2c[nH]c(-c3cccc(Cl)n3)c2)c(F)c1 [Cpd 372, 5-(6-chloro-2-pyridyl)-N-(4-cyano-2-fluoro-phenyl)-1H-pyrrole-3-sulfonamide] | < 500 nM
19 | COc1cc(Cc2c[nH]cc2S(=O)(=O)Nc2ccc(C#N)cc2F)ccc1F [Cpd 536, N-(4-cyano-2-fluorophenyl)-4-[(4-fluoro-3-methoxyphenyl)methyl]-1H-pyrrole-3-sulfonamide] | < 500 nM
20 | N#Cc1cc(F)c(NS(=O)(=O)c2c[nH]c(-c3c(F)cc(F)cc3F)c2)cc1F [Cpd 462, N-(4-cyano-2,5-difluorophenyl)-5-(2,4,6-trifluorophenyl)-1H-pyrrole-3-sulfonamide] | < 500 nM
21 | COc1cccc(F)c1-c1cc(S(=O)(=O)Nc2cc(F)c(C(F)(F)F)cc2F)c[nH]1 [Cpd 180, N-[2,5-difluoro-4-(trifluoromethyl)phenyl]-5-(2-fluoro-6-methoxy-phenyl)-1H-pyrrole-3-sulfonamide] | 500 to 5000 nM

Row | Structure (SMILES) | IC50
22 | O=S(=O)(Nc1ccc(C(F)(F)F)c(Cl)c1F)c1c[nH]c(-c2ccccn2)c1 [Cpd 335, N-[3-chloro-2-fluoro-4-(trifluoromethyl)phenyl]-5-(2-pyridyl)-1H-pyrrole-3-sulfonamide] | 5000 to 50000 nM
23 | Cc1ccc(-c2cc(S(=O)(=O)Nc3cc(F)c(C(F)(F)F)cc3F)c[nH]2)s1 [Cpd 274, N-[2,5-difluoro-4-(trifluoromethyl)phenyl]-5-(5-methyl-2-thienyl)-1H-pyrrole-3-sulfonamide] | 500 to 5000 nM
24 | O=S(=O)(Nc1ccc(F)cc1F)c1c[nH]cc1Cc1ccccc1 [Cpd 151, 4-benzyl-N-(2,4-difluorophenyl)-1H-pyrrole-3-sulfonamide] | 5000 to 50000 nM
25 | Cc1cc(F)c(NS(=O)(=O)c2c[nH]c(-c3ccccc3F)c2)cc1F [Cpd 075, N-(2,5-difluoro-4-methyl-phenyl)-5-(2-fluorophenyl)-1H-pyrrole-3-sulfonamide] | < 500 nM
26 | Cc1c(C(F)(F)F)ccc(NS(=O)(=O)c2c[nH]c(-c3ccccn3)c2)c1F [Cpd 383, N-[2-fluoro-3-methyl-4-(trifluoromethyl)phenyl]-5-pyridin-2-yl-1H-pyrrole-3-sulfonamide] | 5000 to 50000 nM
27 | O=S(=O)(Nc1cccc2c1OCO2)c1c[nH]c(-c2ccccc2F)c1 [Cpd 049, N-(1,3-benzodioxol-4-yl)-5-(2-fluorophenyl)-1H-pyrrole-3-sulfonamide] | 500 to 5000 nM
28 | O=S(=O)(Nc1cc(F)ccc1F)c1c[nH]c(-c2ccccc2F)c1 [Cpd 051, N-(2,5-difluorophenyl)-5-(2-fluorophenyl)-1H-pyrrole-3-sulfonamide] | 500 to 5000 nM
29 | Cc1cccc(Cc2c[nH]cc2S(=O)(=O)Nc2ccc(C#N)cc2F)c1 [Cpd 306, N-(4-cyano-2-fluoro-phenyl)-4-(m-tolylmethyl)-1H-pyrrole-3-sulfonamide] | 500 to 5000 nM
30 | O=S(=O)(Nc1cc(F)c(C(F)(F)F)cc1F)c1c[nH]c(-c2cccc(C(F)(F)F)c2)c1 [Cpd 365, N-[2,5-difluoro-4-(trifluoromethyl)phenyl]-5-[3-(trifluoromethyl)phenyl]-1H-pyrrole-3-sulfonamide] | 500 to 5000 nM
31 | N#Cc1ccc(NS(=O)(=O)c2c[nH]cc2-c2cccs2)c(F)c1 [Cpd 398, N-(4-cyano-2-fluorophenyl)-4-thiophen-2-yl-1H-pyrrole-3-sulfonamide] | 500 to 5000 nM
32 | Cc1ccc(-c2cc(S(=O)(=O)Nc3ccc(C#N)cc3F)c[nH]2)cc1 [Cpd 008, N-(4-cyano-2-fluoro-phenyl)-5-(p-tolyl)-1H-pyrrole-3-sulfonamide] | 500 to 5000 nM
33 | COc1cc(-c2cc(S(=O)(=O)Nc3ccc(C#N)cc3F)c[nH]2)ccc1F [Cpd 259, N-(4-cyano-2-fluoro-phenyl)-5-(4-fluoro-3-methoxy-phenyl)-1H-pyrrole-3-sulfonamide] | 500 to 5000 nM
34 | COc1ccc(C)c(-c2cc(S(=O)(=O)Nc3ccc(C#N)cc3F)c[nH]2)c1 [Cpd 268, N-(4-cyano-2-fluoro-phenyl)-5-(5-methoxy-2-methyl-phenyl)-1H-pyrrole-3-sulfonamide] | 500 to 5000 nM
35 | N#Cc1ccc(NS(=O)(=O)c2c[nH]c(-c3cccc(C(F)(F)F)n3)c2)c(F)c1 [Cpd 373, N-(4-cyano-2-fluoro-phenyl)-5-[6-(trifluoromethyl)-2-pyridyl]-1H-pyrrole-3-sulfonamide] | 500 to 5000 nM
36 | Cc1cc(NS(=O)(=O)c2c[nH]c(-c3ccccc3)c2)c(F)cc1C#N [Cpd 326, N-(4-cyano-2-fluoro-5-methyl-phenyl)-5-phenyl-1H-pyrrole-3-sulfonamide] | < 500 nM
37 | Cc1cnc(NS(=O)(=O)c2c[nH]c(-c3ccccc3)c2)c(F)c1 [Cpd 136, N-(3-fluoro-5-methyl-2-pyridyl)-5-phenyl-1H-pyrrole-3-sulfonamide] | 500 to 5000 nM
38 | N#Cc1ccc(NS(=O)(=O)c2c[nH]cc2Cc2ccccc2)c(F)c1 [Cpd 034, 4-benzyl-N-(4-cyano-2-fluorophenyl)-1H-pyrrole-3-sulfonamide] | < 500 nM
39 | O=S(=O)(Nc1ncc(OCC(F)F)cc1F)c1c[nH]c(-c2ccccc2)c1 [Cpd 434, N-[5-(2,2-difluoroethoxy)-3-fluoropyridin-2-yl]-5-phenyl-1H-pyrrole-3-sulfonamide] | 500 to 5000 nM
40 | O=S(=O)(Nc1ncc(Br)cc1F)c1c[nH]c(-c2ccccc2)c1 [Cpd 168, N-(5-bromo-3-fluoro-2-pyridyl)-5-phenyl-1H-pyrrole-3-sulfonamide] | 500 to 5000 nM
41 | Cc1occc1-c1cc(S(=O)(=O)Nc2cc(F)c(C(F)(F)F)cc2F)c[nH]1 [Cpd 653, N-[2,5-difluoro-4-(trifluoromethyl)phenyl]-5-(2-methylfuran-3-yl)-1H-pyrrole-3-sulfonamide] | < 500 nM
